Data: patent publication US20050043331A1, “Substituted 3-(2,5-disubstituted)pyridyl-4-aryl pyrroles for treating inflammatory diseases” (priority 2002, published 2005)
Read-outs that look alike come from different tables or passages of the source.

What was measured:
[1] = molecular target: T1, P38 (Homo sapiens, UniProt Q16539); assay: P38 cell, 1 μM LJ; format: cell-based; set-up: unit not given here
[2] = test system: TNF-α; assay: In vivo rodent assay for inhibition of LPS-induced TNF-α production; set-up: species or system Mice (BALB/cJ females); conditions: Mus musculus, po, 10 mg/kg oral
Protocol: Mice (BALB/cJ females, Jackson Laboratories) or rats (Lewis males, Charles River) were fasted for 30 min. The animals were dosed orally on a mg/kg basis at a range of times prior to being injected intraperitoneally with LPS at 1 mg/kg and returned to their cages for 1 h. Animals were anesthetized by CO2, exsanguinated by cardiac puncture and whole blood collected (0.1-0.7 mL). The blood was allowed to clot and serum was transferred to a centrifuge tube. This sample was centrifuged, and serum was collected, aliquoted and frozen at −80° C. Samples were tested by commercial ELISA's for TNF-α (Endogen for mouse TNF-α and Biosource for rat TNF-α).

[3] = molecular target: T1, P38; assay: p38 inhibition in-vitro enzyme assay; format: biochemical; conditions: recombinant 6×His-p38
Protocol: Purified recombinant 6×His-p38 and GST-ATF2 (both expressed in Baculovirus) were served as enzyme and substrate in our p38 inhibition assay. The enzyme reaction was performed in the anti-GST antibody pre-coated 96-well ELISA plate.
A 96-well ELISA plate was coated with 100 μl/well of anti-GST antibody (from Amersham) at a concentration of […] and incubated overnight at 4° C. The ELISA plate was blocked with 100 μl/well of 1% BSA at 25° C. for at least 2 hours, then the plate was washed with 300 μl PBST. The enzyme reaction was started by adding 10 μl of p38 recombinant protein (0.05 nM in final concentration), 10 μl of compound in desired concentration, 10 μl of substrates (670 μM ATP, 200 nM GST-ATF2 in final concentration) and 70 μl of reaction buffer (50 mM HEPES, pH 7.4, 100 mM NaCl, 10 mM MgCl2) and the mixture was incubated at 37° C. for 30 min. Washing the reaction plate with 3×300 μl/well of PBST stopped the enzyme reaction. Detection of the phosphorylated ATF2 substrate was done by the addition of 100 μl of anti-Pi-ATF2 antibody (from Cell Signaling) at a 1:200 dilution. The mixture was incubated at 25° C. for 30 min. A solution of 100 μl of HRP-conjugated goat anti-rabbit antibody (from Pierce) at a 1:250 dilution was added and the mixture and incubated at 25° C. for 30 min. The plate was washed with 6×300 μI PBST and 100 μl of OPD substrate (from Sigma) was then added. The mixture was incubated at 25° C. for 10 min. before adding 100 μl of 3 N H2SO4. The plate was read at 490 nm.
The % inhibition of each test compound was calculated by the following formula: % inhibition=[1−(sample−BKG)/(CTRL−BKG)]×100. The IC50 of each test compound was determined by a triplicate-8 point dose titration curve by Prism GraphPad program. […]

[4] = test system: TNF-α; assay: In-vitro whole cell assay for TNF-α inhibition (LPS-stimulated PBMC, ELISA); format: cell-based; conditions: TNF-α by ELISA
How it was run: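 Human PBMC from heparinized venous blood (Ficoll-Hypaque), 1.67×10^6/mL in low-endotoxin RPMI/1% FCS, preincubated with compound 1 h at 37° C, then stimulated with LPS (200 ng/mL stock) overnight at 37° C. Duplicate wells. Supernatant TNF-α quantified by ELISA.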

[5] = 0.5 h, 0.5 h, read-out: Mouse 10 mg/kg % inhib 0.5 h
[6] = 2 h, 2 h, read-out: Mouse 10 mg/kg % inhib 2 h

T1 sequence (Q16539 whole entry): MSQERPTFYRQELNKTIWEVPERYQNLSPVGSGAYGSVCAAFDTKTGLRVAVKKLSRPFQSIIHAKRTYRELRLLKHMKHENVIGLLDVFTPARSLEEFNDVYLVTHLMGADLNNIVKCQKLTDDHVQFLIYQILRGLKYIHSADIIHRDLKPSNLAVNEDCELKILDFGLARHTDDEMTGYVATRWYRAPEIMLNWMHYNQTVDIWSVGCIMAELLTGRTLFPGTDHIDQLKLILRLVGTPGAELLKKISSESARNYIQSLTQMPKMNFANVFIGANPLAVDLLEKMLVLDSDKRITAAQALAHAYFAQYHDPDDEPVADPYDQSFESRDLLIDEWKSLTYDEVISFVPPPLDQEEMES

Row | Compound | P38 cell 1 μM LJ [1] | IC50 [3] [nM] | IC50 [4] [nM] | inhibition in vivo at 10 mg/kg [2, 5] [%] | inhibition in vivo at 10 mg/kg [2, 6] [%]
1 | COC(=O)c1c(-c2ccc(F)cc2)c(-c2ccncc2)c(NCCN2CCOCC2)n1C [Cpd 5] | 2 | > 10000 | 50 | 44 | 
2 | COC(=O)c1c(-c2ccc(F)cc2)c(-c2ccncc2)c(N)n1C [Cpd 9, 5-Amino-3-(4-fluorophenyl)-1-methyl-4-(4-pyridinyl)-1H-pyrrole-2-carboxylic acid methyl ester] | 12 |  | 51 | 53.9 | 
3 | COC(=O)c1c(-c2ccc(F)cc2)c(-c2ccncc2)c(N2CCN(C)CC2)n1C [Cpd 10, 3-(4-Fluorophenyl)-1-methyl-5-(4-methyl-1-piperazinyl)-4-(4-pyridinyl)-1H-pyrrole-2-carboxylic acid methyl ester] | 1 |  | 95 | 89 | 
4 | COC(=O)c1c(-c2ccc(F)cc2)c(-c2ccncc2)c(N(C)CCN2CCOCC2)n1C [Cpd 11, 3-(4-Fluorophenyl)-1-methyl-5-[methyl[2-(4-morpholinyl)ethyl]amino]-4-(4-pyridinyl)-1H-pyrrole-2-carboxylic acid methyl ester] |  | > 10000 | 38 | 66 | 
5 | Fc1ccc(-c2cn3c(c2-c2ccncc2)CN(Cc2ccccc2)CC3)cc1 [Cpd 29, 7-(4-Fluorophenyl)-1,2,3,4-tetrahydro-2-(phenylmethyl)-8-(4-pyridinyl)-pyrrolo[1,2-a]pyrazine] |  | 1660 | 11 | -6 | 
6 | O=C1c2c(-c3ccncc3)c(-c3ccc(F)cc3)cn2C(=O)N1Cc1ccccc1 [Cpd 50] |  | > 10000 | 26 | 51 | 
7 | O=C(NCc1ccccc1)c1[nH]cc(-c2ccc(F)cc2)c1-c1ccncc1 [Cpd 51] |  | > 10000 | 14 | -60 | 
8 | CCCc1[nH]cc(-c2ccc(F)cc2)c1-c1ccnc(N[C@@H](C)c2ccccc2)n1 [Cpd 53] |  | 1440 | 10 | -19 | 
9 | CCOC(=O)c1[nH]cc(-c2ccc(F)cc2)c1-c1ccncc1 [Cpd 54] |  | > 10000 | 145 |  | 
10 | Fc1ccc(-c2c[nH]c(CN3CCNCC3)c2-c2ccncc2)cc1 [Cpd 56] |  | 856 | 63 | -41 | 
11 | OCc1c(-c2ccc(F)cc2)c(-c2ccncc2)cn1CCN1CCOCC1 [Cpd 59] | 4 | 16 | 277 | -50 | 
12 | CCCc1[nH]cc(-c2ccc(F)cc2)c1-c1ccnc(N[C@@H](C)COC)n1 [Cpd 61] | 91 | 5 | 86 | -35 | 
13 | CCOC(=O)c1[nH]cc(-c2ccncc2)c1-c1cc(F)cc(F)c1 [Cpd 62] | 0 | 3470 | 114 | -14 | 
14 | OCCNCc1[nH]cc(-c2ccc(F)cc2)c1-c1ccncc1 [Cpd 63] | 8 | > 2000 | 148 |  | 
15 | CCOC(=O)c1c(-c2cc(F)cc(F)c2)c(-c2ccncc2)cn1C [Cpd 64] | 7 | 8690 | 33 | -31 | 
16 | CCCc1c(-c2ccnc(N[C@@H](C)COC)n2)c(-c2ccc(F)cc2)cn1CCN1CCOCC1 [Cpd 65] | 102 | 21 | 1 | -1 | 
17 | Nc1[nH]cc(-c2ccc(F)cc2)c1-c1ccncc1 [Cpd 66] | 6 | 905 | 905 |  | 
18 | C[C@H](Nc1nccc(-c2c[nH]cc2-c2ccc(F)cc2)n1)c1ccccc1 [Cpd 67] | 90 | 55 | 3 |  | 
19 | Fc1ccc(-c2c[nH]c(CN3CCc4ccccc4C3)c2-c2ccncc2)cc1 [Cpd 72] | 32 |  | 40 | 63 | 
20 | CN(Cc1ccccc1)Cc1[nH]cc(-c2ccc(F)cc2)c1-c1ccncc1 [Cpd 73] | 78 |  | 91 | 37 | 

More lines, main results first:

Row | P38 cell 1 μM LJ [1] | IC50 [3] [nM] | IC50 [4] [nM] | Compound | inhibition in vivo at 10 mg/kg [2, 5] [%] | inhibition in vivo at 10 mg/kg [2, 6] [%]
21 | 18 |  | 1480 | CNC(=O)c1c(-c2ccc(F)cc2)c(-c2ccncc2)cn1C [Cpd 76] | 67 | 78
22 | 9 |  | 736 | CCOC(=O)c1c(-c2ccc(C)cc2)c(-c2ccncc2)c(Br)n1C [Cpd 79] | -76 | 
23 | 32 |  | 17 | COC(=O)c1c(-c2ccc(F)cc2)c(-c2ccncc2)c(N2CCCC2)n1C [Cpd 80] | -38 | 
24 | 12 |  | 47 | COC(=O)c1c(-c2ccc(F)cc2)c(-c2ccncc2)c(N2CCOCC2)n1C [Cpd 81] | -41 | 
25 | 8 |  | 1890 | Cn1c(Br)c(-c2ccncc2)c(-c2ccc(F)cc2)c1C(=O)OC(C)(C)C [Cpd 82] | -7 | 
26 | 11 |  | 543 | CNC(=O)c1c(-c2ccc(F)cc2)c(-c2ccncc2)c(Br)n1C [Cpd 84] | 53 | 
27 | 4 |  | 108 | CCn1cc(-c2ccncc2)c(-c2ccc(F)cc2)c1C(=O)OC [Cpd 85] | 53 | 
28 | 29 |  | 40 | CC(=O)c1c(-c2ccc(F)cc2)c(-c2ccncc2)c(N2CCNCC2)n1C [Cpd 91] | 39 | 
29 | 6 |  | 43 | CC(=O)c1c(-c2ccc(F)cc2)c(-c2ccncc2)c(N2CCN(C(C)=O)CC2)n1C [Cpd 92] | 61 | 28
30 | 10 |  | 420 | Cn1c(C(=O)OC(C)(C)C)c(-c2ccc(F)cc2)c(-c2ccncc2)c1N1CCNCC1 [Cpd 94] | 25 | 
31 | 21 |  | 1380 | CN(C)C(=O)c1c(-c2ccc(F)cc2)c(-c2ccncc2)cn1C [Cpd 95] | 33 | 
32 | 1 |  | 301 | CN(C)C(=O)c1c(-c2ccc(F)cc2)c(-c2ccncc2)c(Br)n1C [Cpd 97] | -41 | 
33 | −2 |  | 52 | COC(=O)c1c(-c2ccc(F)cc2)c(-c2ccncc2)c(N=C(c2ccccc2)c2ccccc2)n1C [Cpd 98] | -49 | 
34 | 13 | > 10000 | 120 | CN(C)C(=O)c1c(-c2ccc(F)cc2)c(-c2ccncc2)c(N2CCNCC2)n1C [Cpd 101] |  | 
35 | 15 |  | 28 | COC(=O)C(=O)c1c(-c2ccc(F)cc2)c(-c2ccncc2)c(N2CCNCC2)n1C [Cpd 108] | 52 | 
36 |  | 6180 | 7750 | CCN1CCCC1CNc1c(-c2ccncc2)c(-c2ccc(F)cc2)c(C(=O)OC)n1C (centres unmarked) [Cpd 109] |  | 
37 |  | 1350 | 50 | CCCc1c(-c2ccnc(N[C@@H](C)COC)n2)c(-c2ccc(F)cc2)cn1C(=O)OC(C)(C)C [Cpdd 58] |  | 
